Source: PubChem BioAssay AID330 (DTP/NCI, 2004)
Where “and” joins values, the source holds several entries; their conditions need not be identical. Equal entries are not always repeated. Toxic doses and inconclusive results are not listed. Rule for the calls: active = survival T/C of 150% or more; inactive = T/C below 125% in these data.

Tested on: P388 leukemia ip, CD2F1 mice, survival T/C
Experiment: NCI In Vivo Anticancer Drug Screen. Data for tumor model P388 Leukemia (intraperitoneal) in CD2F1 (CDF1) mice
Conditions: endpoint: median survival time, higher = longer survival
In short: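 Mice carrying the transplanted tumor received test compound or vehicle. Survival was recorded in each group, and the value is the treated-group measurement divided by that of the vehicle-treated control group.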

[1] = dose: 25.0 mg/kg/injection, schedule: Q01DX009 (ip), vehicle: saline
[2] = dose: 50.0 mg/kg/injection, schedule: Q01DX009 (ip), vehicle: saline
[3] = dose: 50.0 mg/kg/injection, schedule: Q01DX005 (ip), vehicle: Klucel (hydroxypropylcellulose) (HPC)
[4] = dose: 100.0 mg/kg/injection, schedule: Q01DX005 (ip), vehicle: Klucel (hydroxypropylcellulose) (HPC)
[5] = dose: 200.0 mg/kg/injection, schedule: Q01DX005 (ip), vehicle: Klucel (hydroxypropylcellulose) (HPC)
[6] = dose: 100.0 mg/kg/injection, schedule: Q04DX002 (ip), vehicle: saline with Tween-80
[7] = dose: 200.0 mg/kg/injection, schedule: Q04DX002 (ip), vehicle: saline with Tween-80
[8] = dose: 50.0 mg/kg/injection, schedule: Q01DX009 (ip), vehicle: saline with Tween-80
[9] = dose: 100.0 mg/kg/injection, schedule: Q01DX009 (ip), vehicle: saline with Tween-80
[10] = dose: 200.0 mg/kg/injection, schedule: Q01DX009 (ip), vehicle: saline with Tween-80
[11] = dose: 100.0 mg/kg/injection, schedule: Q01DX001 (ip), vehicle: saline with Tween-80
[12] = dose: 200.0 mg/kg/injection, schedule: Q01DX001 (ip), vehicle: saline with Tween-80
[13] = dose: 400.0 mg/kg/injection, schedule: Q01DX009 (ip), vehicle: saline with Tween-80
[14] = dose: 200.0 mg/kg/injection, schedule: Q01DX009 (ip), vehicle: saline
[15] = dose: 7.5 mg/kg/injection, schedule: Q01DX005 (ip), vehicle: saline with Tween-80
[16] = dose: 15.0 mg/kg/injection, schedule: Q01DX005 (ip), vehicle: saline with Tween-80
[17] = dose: 100.0 mg/kg/injection, schedule: Q01DX009 (ip), vehicle: saline

Measured: T/C

COc1ccc(N=C([Se])CCC(C)C)cc1
inactive: dose: 6.25 mg/kg/injection, schedule: Q01DX009 (ip), vehicle: Klucel (hydroxypropylcellulose) (HPC) 111 % of control | dose: 12.5 mg/kg/injection, schedule: Q01DX009 (ip), vehicle: Klucel (hydroxypropylcellulose) (HPC) 106 % of control | dose: 25.0 mg/kg/injection, schedule: Q01DX009 (ip), vehicle: Klucel (hydroxypropylcellulose) (HPC) 108 % of control

NC(N)=N/N=C/c1ccc(Cl)cc1Cl
inactive: [1] 104 % of control | [2] 106 % of control

CC1(C(=O)O)NCCc2cc(O)c(O)cc21 (configuration not stated)
inactive: [3] 104 % of control | [4] 104 % of control | [5] 103 % of control

CC(=O)NC1=C(O)C2C(c3ccccc3)C(C#N)C(=O)N2C1=O (configuration not stated)
inactive: [6] 100 % of control | [7] 100 % of control | dose: 400.0 mg/kg/injection, schedule: Q04DX002 (ip), vehicle: saline with Tween-80 95 % of control

CCS
inactive: dose: 25.0 mg/kg/injection, schedule: Q01DX009 (ip), vehicle: saline with Tween-80 86 % of control | [8] 91 % of control | [9] 92 % of control | [10] 88 % of control

COc1ccccc1N/N=c1/c2n(-c3ccc(Cl)cc3)c(=S)n(-c3ccccn3)c1=NCCN=2
inactive: dose: 12.5 mg/kg/injection, schedule: Q01DX005 (ip), vehicle: saline with Tween-80 97 % of control | dose: 25.0 mg/kg/injection, schedule: Q01DX005 (ip), vehicle: saline with Tween-80 100 % of control | dose: 50.0 mg/kg/injection, schedule: Q01DX005 (ip), vehicle: saline with Tween-80 102 % of control and 94 % of control

S=P1(CNc2ccccc2)CN(c2ccccc2)CN(c2ccccc2)C1
inactive: dose: 50.0 mg/kg/injection, schedule: Q01DX001 (ip), vehicle: saline with Tween-80 100 % of control | [11] 95 % of control | [12] 100 % of control

CC1(C)/C(=C/c2ccccc2)C(=O)c2ccccc21
inactive: [9] 90 % of control | [10] 100 % of control | [13] 100 % of control

CCOC(=O)N1C=CC(C2C=CN(C(=O)OCC)C=C2)C=C1
inactive: dose: 10.0 mg/kg/injection, schedule: Q01DX009 (ip), vehicle: saline with Tween-80 111 % of control | dose: 20.0 mg/kg/injection, schedule: Q01DX009 (ip), vehicle: saline with Tween-80 96 % of control | dose: 40.0 mg/kg/injection, schedule: Q01DX009 (ip), vehicle: saline with Tween-80 105 % of control

CCOC(=O)CCc1[nH]c(=S)ncc1C(=O)OCC
inactive: dose: 7.5 mg/kg/injection, schedule: Q01DX009 (ip), vehicle: saline with Tween-80 96 % of control | dose: 15.0 mg/kg/injection, schedule: Q01DX009 (ip), vehicle: saline with Tween-80 101 % of control | dose: 30.0 mg/kg/injection, schedule: Q01DX009 (ip), vehicle: saline with Tween-80 104 % of control

CCOC(=O)c1nc2c(N)nc(-c3ccccc3)nc2[nH]c1=O
inactive: [8] 94 % of control | [9] 92 % of control | [10] 97 % of control

NNC(=O)C(O)C(O)C(O)C(O)CO (configuration not stated)
inactive: dose: 50.0 mg/kg/injection, schedule: Q01DX005 (ip), vehicle: saline 92 % of control | dose: 100.0 mg/kg/injection, schedule: Q01DX005 (ip), vehicle: saline 100 % of control | dose: 200.0 mg/kg/injection, schedule: Q01DX005 (ip), vehicle: saline 100 % of control

CC(=O)Nc1nccs1.CC(=O)Nc1nccs1.[Cl][Pt][Cl]
inactive: [6] 93 % of control | [7] 91 % of control

COC(=O)c1cc([N+](=O)[O-])ccc1N=NNc1ccccc1
inactive: dose: 12.5 mg/kg/injection, schedule: Q01DX009 (ip), vehicle: saline 106 % of control | [1] 103 % of control and 95 % of control | [2] 100 % of control and 105 % of control and 95 % of control | [14] 87 % of control

CCC[CH2][Sn]1([CH2]CCC)[O]CCN2CCN(CC[O]1)CC2
inactive: dose: 3.75 mg/kg/injection, schedule: Q01DX005 (ip), vehicle: saline with Tween-80 102 % of control | [15] 100 % of control | [16] 100 % of control

Nc1nc(Cl)c2ncn(C3OC(CO)C(O)C3O)c2n1 (configuration not stated)
inactive: [10] 98 % of control | [13] 100 % of control

CCOC(=O)CC[Si](CC)(CC)CC
inactive: [2] 104 % of control | [17] 93 % of control | [14] 90 % of control

O=C(O)c1cccc(C(=O)O)c1Sc1ccccc1
inactive: [11] 103 % of control | [12] 100 % of control | dose: 400.0 mg/kg/injection, schedule: Q01DX001 (ip), vehicle: saline with Tween-80 94 % of control

CC(=O)Oc1c2c(c(OC(C)=O)c3ccccc13)C(=O)C(O)C(C)O2 (configuration not stated)
inactive: dose: 100.0 mg/kg/injection, schedule: Q01DX001 (ip), vehicle: Klucel (hydroxypropylcellulose) (HPC) 102 % of control | dose: 200.0 mg/kg/injection, schedule: Q01DX001 (ip), vehicle: Klucel (hydroxypropylcellulose) (HPC) 96 % of control | dose: 400.0 mg/kg/injection, schedule: Q01DX001 (ip), vehicle: Klucel (hydroxypropylcellulose) (HPC) 100 % of control

CCCn1c(C)nc2c([N+](=O)[O-])cc(C(F)(F)F)cc21
inactive: dose: 60.0 mg/kg/injection, schedule: Q01DX005 (ip), vehicle: saline with Tween-80 98 % of control | dose: 120.0 mg/kg/injection, schedule: Q01DX005 (ip), vehicle: saline with Tween-80 97 % of control | dose: 240.0 mg/kg/injection, schedule: Q01DX005 (ip), vehicle: saline with Tween-80 99 % of control

CC(C)(C)c1cc(C(C)(C)C)c(O)c(Br)c1O
inactive: dose: 50.0 mg/kg/injection, schedule: Q01DX009 (ip), vehicle: Klucel (hydroxypropylcellulose) (HPC) 101 % of control | dose: 100.0 mg/kg/injection, schedule: Q01DX009 (ip), vehicle: Klucel (hydroxypropylcellulose) (HPC) 102 % of control | dose: 200.0 mg/kg/injection, schedule: Q01DX009 (ip), vehicle: Klucel (hydroxypropylcellulose) (HPC) 101 % of control

C=CC[n+]1ccc2ccccc2c1
inactive: dose: 25.0 mg/kg/injection, schedule: Q01DX009 (ip), vehicle: saline sonified 90 % of control | dose: 50.0 mg/kg/injection, schedule: Q01DX009 (ip), vehicle: saline sonified 90 % of control | dose: 100.0 mg/kg/injection, schedule: Q01DX009 (ip), vehicle: saline sonified 95 % of control

N#CC(=O)Nc1cc(Cl)cc(Cl)c1
inactive: [15] 100 % of control | [16] 102 % of control

COB(C1CCCCC1)C1CCCCC1
inactive: dose: 50.0 mg/kg/injection, schedule: Q01DX009 (ip), vehicle: acetone 100 % of control | dose: 100.0 mg/kg/injection, schedule: Q01DX009 (ip), vehicle: acetone 105 % of control | dose: 200.0 mg/kg/injection, schedule: Q01DX009 (ip), vehicle: acetone 105 % of control

CCCCCCCC/C=C\CCCCCCCC(=O)OCCCCCCCCCCCC
inactive: dose: 6.25 mg/kg/injection, schedule: Q01DX012 (ip), vehicle: saline with Tween-80 100 % of control | dose: 12.5 mg/kg/injection, schedule: Q01DX012 (ip), vehicle: saline with Tween-80 104 % of control | dose: 50.0 mg/kg/injection, schedule: Q01DX012 (ip), vehicle: saline with Tween-80 100 % of control | dose: 100.0 mg/kg/injection, schedule: Q01DX012 (ip), vehicle: saline with Tween-80 98 % of control | dose: 200.0 mg/kg/injection, schedule: Q01DX012 (ip), vehicle: saline with Tween-80 101 % of control | dose: 500.0 mg/kg/injection, schedule: Q01DX012 (ip), vehicle: saline with Tween-80 106 % of control | dose: 872.0 mg/kg/injection, schedule: Q01DX012 (ip), vehicle: saline with Tween-80 97 % of control

CC(NC(=O)OCc1ccccc1)C(=O)NC(C(=O)O)C(C)O (configuration not stated)
inactive: [3] 98 % of control | [4] 99 % of control | [5] 96 % of control

O=[n+]1ccn([O-])c2ccccc21.[O-][Cl+3]([O-])([O-])O.[Zn+2]
inactive: dose: 100.0 mg/kg/injection, schedule: Q04DX003 (ip), vehicle: saline with Tween-80 98 % of control

COC(=O)C1=C(C(=O)OC)C23C(=O)c4ccc(OC)c(OC)c4C1(OC)N2CCc1cc2c(cc13)OCO2 (configuration not stated)
inactive: dose: 50.0 mg/kg/injection, schedule: Q04DX002 (ip), vehicle: saline with Tween-80 96 % of control | [6] 96 % of control | [7] 100 % of control

COC(=O)Nc1ccc(C(=O)c2ccccc2)cc1
inactive: [2] 98 % of control | [17] 99 % of control | [14] 93 % of control
